According to patent US7271160B2, “Methods and compositions for degradation and/or inhibition of HER-family tyrosine kinases” (Sloan-Kettering Institute for Cancer Research, priority 1999, dated 2007):
Entries after “also recorded” stand apart in the source; their conditions may differ.

Columns and labels:
MCF-7 cells = test: MCF-7 cell growth inhibition (cell counting); format: cell-based; details: Homo sapiens, MCF7, 96 h; MCF-7 cells treated for four days; 50% growth inhibition vs vehicle; average of three experiments; read-out: IC50 (growth inh.)
Experimental: (§1) The human breast cancer cell lines MCF-7 and SKBR-3 were obtained from ATCC (Rockville, Md.), and maintained in DME/F12 (1:1) supplemented with 10% heat-inactivated fetal bovine serum (Gemini Bioproducts), 2 mM glutamine, and 50 units/ml each of penicillin and streptomycin, in a humidified 5% CO2/air atmosphere at 37° C.
For cell growth experiments, cells were plated in 6-well tissue-culture plates (Corning) at 20,000 cells/well. Two days after plating, cells were treated with different concentrations of drugs or the vehicle DMSO (0.1%). MCF-7 cells were treated for four days; medium with the appropriate drug or vehicle was changed every 2 days; cells were trypsinized, collected and counted on a Coulter counter; IC50 for cell growth is designated as the amount of each drug needed to inhibit MCF-7 growth by 50% compared to the control vehicle.

HER2 [1] = test: Induction of HER2 degradation in MCF-7 cells (immunoblotting); format: cell-based, human; details: for IC50: 24-hr treatment, amount of drug needed to degrade 50% of the protein vs control, average of three experiments, read-out: IC50 (HER-2); for specificity/selectivity for HER-2 over Raf-1: compared to GM
Experimental: (§2) After exposure, cells were washed twice with ice-cold phosphate-buffered saline (PBS), collected by scraping and transferred into microcentrifuge tubes. For immunoblotting (HER2, Raf-1, ER), cells were lysed with SDS lysis buffer (50 mM Tris-HCl, pH 7.5, 2% SDS, 10% glycerol, and 1 mM DTT), boiled for 10 min, and sonicated briefly; for immanoprecipitation (IGF-IR), cells were lysed with NP40 lysis buffer (50 mM Tris-HCl, pH 7.5, 1% Nonidet P-40, 150 mM NaCl, 1 mM Na3VO4, 40 mM NaF, 1 mM phenylmethylsulfonyl fluoride (PMSF) and 10 μg/ml each of aprotinin, leupeptin and soybean trypsin inhibitor) for 20 min at 4° C. Cell lysates were cleared by centrifuging at 14,000×g for 15 min at 4° C. in a microcentrifuge; the supernatants were collected as the experimental samples. Protein concentration in each sample was determined using the BCA kit (Pierce) according to the manufacture's instructions. For detecting IGF-IR, samples were immunoprecipitated with anti-IGF-IR antibody. Immunocomplexes were collected on protein A-Sepharose beads (Pharmacia), washed three tires with the lysis buffer. Samples were subjected to SDS-PAGE, electrotransferred to nitrocellulose membranes, detected using the ECL kit (Amersham) according to the manufacturer's protocol, and quantitated using the Gel Doc 1000 (Bio-Rad).
(§3) Numerical results for IC50 for HER-2, Raf-1 and cell growth are summarized in Table 1, with each number representing the average of three different experiments.

Raf-1 [2] = test: Induction of Raf-1 degradation in MCF-7 cells (immunoblotting); format: cell-based, human; details: for IC50: 24-hr treatment, amount of drug needed to degrade 50% of the protein vs control, average of three experiments
Experimental: as §2, §3

Raf-1 [3] = test: Immunofluorescence of Raf-1 in MCF-7 cells; format: cell-based, human; details: vs DMSO control
Experimental: (§4) MCF-7 cells were grown and treated on fibronectin-coated coverslips placed in multiwell plates. Cells were fixed for 20 min at −20° C. in 100% methanol, rehydrated in PBS for 10 min at room temperature and blocked for 30 min at 37° C. in a blocking solution consisting of 2% bovine serum albumin (BSA), 10% normal goat serum and 0.05% Tween-20 in PBS. HER2 and Raf-1 were immunodetected with antibodies from Santa Cruz (SC284 and SC133, respectively); IGF-IR, an antibody from Calbiochem Oncogene Science (Abl). Slides were incubated with a […] of the primary antibody in blocking buffer for 1 hr at room temperature, followed by an incubation with Alexa 546-coupled goat anti-rabbit lgG secondary antibody (A-11010, Molecular Probes) at a […] in blocking buffer, or fluoresceine isothiocyanate-coupled goat anti-mouse IgG (F276, Molecular Probes) at a […]. […] DNA was stained with bisbenzimide, which was included in the secondary antibody solution (3 μg/ml final concentration. Coverslips were mounted on glass slides using Vectashield (Vector), to prevent quenching of fluorescence. Immunofluorescence was detected with a Zeiss epifluorescence microscope, at 40× and 100×, using appropriate filters for detection of rhodamine and bisbenzimide, and via confocal microscopy.

estrogen receptor = test: Estrogen receptor level in MCF-7 cells (immunoblotting time course); format: cell-based, human; details: 1 μM, 3 to 24 hours
IGF-IR = test: Immunofluorescence of IGF-IR in MCF-7 cells; format: cell-based, human; details: vs DMSO control
Experimental: as §4

IGF-I receptor = IGF-I receptor level in MCF-7 cells (immunoprecipitation/immunoblotting time course); format: cell-based, human; details: 1 μM, 3 to 24 hours
Experimental: as §2, with “For immunoblotting (HER2, Raf-1, ER), cells were lysed with SDS lysis buffer (50 mM Tris-HCl, pH 7.5, 2% SDS, 10% glycerol, and 1 mM DTT), boiled for 10 min, and sonicated briefly; for immanoprecipitation (IGF-IR), cells were lysed with NP40 lysis buffer (50 mM Tris-HCl, pH 7.5, 1% Nonidet P-40, 150 mM NaCl, 1 mM Na3VO4, 40 mM NaF, 1 mM phenylmethylsulfonyl fluoride (PMSF) and 10 μg/ml each of aprotinin, leupeptin and soybean trypsin inhibitor) for 20 min at 4° C.” left out

HER-2 and Raf-1 = test: Varying concentration and treatment pattern, HER-2 and Raf-1 levels (Example 3); format: cell-based
SKBR3 = SKBR3 breast cancer cell sensitivity; format: cell-based, human; details: SKBR3, HER2 highly overexpressed
Experimental: as §1

HER2 [4] = test: Immunofluorescence of HER2 in MCF-7 cells; format: cell-based, human; details: vs DMSO control
Experimental: as §4

32D cells = test: 32D cell growth (HER-kinase negative cells, daily cell counts); format: cell-based, murine; details: 32D cells lacking HER-kinases; various concentrations, counted daily for three days
Experimental: Murine hematopoietic cell line 32D, which lacks HER-kinases, was kindly provided by Dr Yosef Yarden (The Weizmann Institute of Science, Israel), and maintained in RPMI-1640 supplemented with 10% heat-inactivated FBS, 2 nm interleukin 3 (R&D systems), 2 mM glutamine, and 50 units/ml each of penicillin and streptomycin.

IC50 (MCF-7 cells) [nM] | IC50 (HER2 [1]) [nM] | IC50 (Raf-1 [2]) [nM] | Compound | specificity/selectivity for HER-2 over Raf-1 (HER2 [1]) | activity against HER2 (in words) (HER2 [1]) | activity against Raf-1 (in words) (Raf-1 [2]) | further results
700 | 750 | 3500 | COC1C=CC=C(C)C(=O)NC2=CC(=O)C(NCCCCCCCCCCCCNC3=C4CC(C)CC(OC)C(O)C(C)C=C(C)C(OC(N)=O)C(OC)C=CC=C(C)C(=O)NC(=CC3=O)C4=O)=C(CC(C)CC(OC)C(O)C(C)C=C(C)C1OC(N)=O)C2=O (stereo not drawn) [twelve carbon-linked compound] |  |  |  | 
100 | 60 | 3200 | COC1C=CC=C(C)C(=O)NC2=CC(=O)C(NCCCCNC3=C4CC(C)CC(OC)C(O)C(C)C=C(C)C(OC(N)=O)C(OC)C=CC=C(C)C(=O)NC(=CC3=O)C4=O)=C(CC(C)CC(OC)C(O)C(C)C=C(C)C1OC(N)=O)C2=O (stereo not drawn) [GMD-4c] | greatest selectivity of the compounds tested |  |  | anti-Raf-1 staining (immunofluorescence) (Raf-1 [3]): only observed for the anti-HER2 antibodies; HER2 / HER-kinase expression over time (HER2 [1]; 1 μM, 3 to 24 hours, Western blot and immunohistochemical analysis): reduces HER2 expression with the same kinetics; Estrogen receptor levels over time (estrogen receptor): declined transiently but returned to baseline by 24 hours; anti-IGF-IR staining (immunofluorescence) (IGF-IR): only observed for the anti-HER2 antibodies; IGF-I receptor expression over time (IGF-I receptor): does not affect; amount of HER-2 and Raf-1 as a function of the treatment pattern (HER-2 and Raf-1; 0.25, 0.5 and 1 μM, single or repeated treatments at 0, 3, 6, 12 hours): No significant differences; selectivity on repeated addition (HER-2 and Raf-1; high concentrations added four times in twelve hours): retained selectivity; sensitivity of SKBR3 cells (SKBR3): very sensitive; anti-HER2 staining (immunofluorescence) (HER2 [4]): significant reduction in fluorescence levels; effect on growth of 32D cells (32D cells): does not appreciably affect its growth; also recorded: much less so; Raf-1 expression over time (Raf-1 [2]; 1 μM, 3 to 24 hours): does not affect
600 | 70 | 500 | COC1C=CC=C(C)C(=O)NC2=CC(=O)C(NCCCCCCCNC3=C4CC(C)CC(OC)C(O)C(C)C=C(C)C(OC(N)=O)C(OC)C=CC=C(C)C(=O)NC(=CC3=O)C4=O)=C(CC(C)CC(OC)C(O)C(C)C=C(C)C1OC(N)=O)C2=O (stereo not drawn) [GMD-7c] |  |  |  | 
> 2000 | > 5000 | > 5000 | CC(C)C(C)C [GMD-aa] |  | inactive | inactive | 

Compound | IC50 (MCF-7 cells) [nM] | IC50 (HER2 [1]) [nM] | IC50 (Raf-1 [2]) [nM] | specificity/selectivity for HER-2 over Raf-1 (HER2 [1]) | activity against HER2 (in words) (HER2 [1]) | activity against Raf-1 (in words) (Raf-1 [2]) | further results
COC1C=CC=C(C)C(=O)NC2=CC(=O)C(NCCCCCCCCCNC3=C4CC(C)CC(OC)C(O)C(C)C=C(C)C(OC(N)=O)C(OC)C=CC=C(C)C(=O)NC(=CC3=O)C4=O)=C(CC(C)CC(OC)C(O)C(C)C=C(C)C1OC(N)=O)C2=O (stereo not drawn) | 700 | 500 | 3800 |  |  |  | 
COC1C=CC=C(C)C(=O)NC2=CC(=O)C(NCCCCN)=C(CC(C)CC(OC)C(O)C(C)C=C(C)C1OC(N)=O)C2=O (stereo not drawn) [ButylaminoGM] |  | 55 |  | not selective | modestly weaker than GM | modestly weaker than GM | 
